Measured values: patent US10603345B2, “Pharmaceutical composition for treating respiratory disease” (Kunming Institute of Botany, The Chinese Academy of Sciences, priority 2015, dated 2020)

Assays:
Type in all cases: in vivo
[1] = tested on: TNF-α in LPS-induced rat; assay: Effect on TNF-α in LPS-induced rat; settings: ig 7 d, dose/kg: DXM 1.5 mg, Test group 1 30 mg, 2 15 mg, 3 7.5 mg, x ± S
Description: (§1) Animal source: 190˜220 g male SD rat, from laboratory animal department of Kunming Medical University, License No. SCXK (Dian) 2011-0004.
(§2) Method and route: lipopolysaccharide (LPS) was used to induce a rat airway inflammation model; after intragastrical administration for 7 d at a dose of 10 mL/kg, the animal was sacrificed at the eighth day.
(§3) Sample preparation: all the samples were prepared by using 0.5% carboxymethylcellulose sodium (0.5% CMC-Na).
Group and dose: in Test group 1 and Test group 2, the ratio of picrinine, vallesamine, scholaricine and 19-epischolaricine by weight was, 45:36:7:10 and 10:18:9:2, respectively, and the other groups and doses thereof were as described in Example 9.
Test index: TNF-α in bronchoalveolar lavage fluid (BALF), serum, and homogenate was used as index.

[2] = tested on: MDA in LPS-induced rat; assay: Effect on MDA in LPS-induced rat; settings: ig 7 d, dose/kg: DXM 1.5 mg, Test group 1 30 mg, 2 15 mg, 3 7.5 mg, x ± S
Description: Group and dose: in Test group 1 and Test group 2, the ratio of picrinine, vallesamine, scholaricine and 19-epischolaricine by weight was 45:6:28:3 and 17:14:9:4, respectively, and the other groups and doses thereof were as described in Example 9.
Test index: MDA in bronchoalveolar lavage fluid (BALF), serum, and homogenate was used as index.

[3] = tested on: AKP in LPS-induced rat; assay: Effect on AKP in LPS-induced rat; settings: ig 7 d, dose/kg: DXM 1.5 mg, Test group 1 30 mg, 2 15 mg, 3 7.5 mg
Description: as §1, §2, §3
Group and dose: in Test group 1 and Test group 2, the ratio of picrinine, vallesamine, scholaricine and 19-epischolaricine by weight was 8:25:30:9 and 12:10:9:2, respectively, and the other groups and doses thereof were as described in Example 9.
Test index: AKP in bronchoalveolar lavage fluid (BALF), and serum was used as index.

[4] = tested on: inflammatory cell in LPS-induced rat; assay: Effect on inflammatory cell and classification in BALF of LPS-induced rat; settings: ig 7 d, dose/kg: DXM 1.5 mg, Test group 1 30 mg, 2 15 mg, 3 7.5 mg, x ± S
Description: as §1, §2, §3
Group and dose: in Test group 1 and Test group 2, the ratio of picrinine, vallesamine, scholaricine and 19-epischolaricine by weight was 43:16:30:8 and 20:38:30:7, respectively, and the other groups and doses thereof were as described in Example 9.
Test index: Total number of white blood cells (WBCs) and inflammatory cell classification in bronchoalveolar lavage fluid (BALF) were used as indexes.

[5] = tested on: NO in LPS-induced rat; assay: Effect on NO in LPS-induced rat; settings: ig 7 d, dose/kg: DXM 1.5 mg, Test group 1 30 mg, 2 15 mg, 3 7.5 mg, x ± S
Description: as §1, §2, §3
Group and dose: in Test group 1 and Test group 2, the ratio of picrinine, vallesamine, scholaricine and 19-epischolaricine by weight was 40:30:28:2 and 15:18:26:7, respectively, and the other groups and doses thereof were as described in Example 9.
Test index: NO in bronchoalveolar lavage fluid (BALF), serum, and homogenate was used as index.

[6] = tested on: IL-8 in LPS-induced rat; assay: Effect on IL-8 in LPS-induced rat; settings: ig 7 d, dose/kg: DXM 1.5 mg, Test group 1 30 mg, 2 15 mg, 3 7.5 mg, x ± S
Description: as §1, §2, §3
Group and dose: in Test group 1 and Test group 2, the ratio of picrinine, vallesamine, scholaricine and 19-epischolaricine by weight was 48:10:30:9 and 12:14:15:6, respectively, and the other groups and doses thereof were as described in Example 9.
Test index: IL-8 in bronchoalveolar lavage fluid (BALF), serum, and homogenate was used as index.

[7] = tested on: LDH in LPS-induced rat; assay: Effect on LDH in LPS-induced rat; settings: ig 7 d, dose/kg: DXM 1.5 mg, Test group 1 30 mg, 2 15 mg, 3 7.5 mg
Description: as §1, §2, §3
Group and dose: in Test group 1 and Test group 2, the ratio of picrinine, vallesamine, scholaricine and 19-epischolaricine by weight was 10:28:15:8 and 10:7:7:2, respectively, and the other groups and doses thereof were as described in Example 9.
Test index: LDH in bronchoalveolar lavage fluid (BALF), and serum was used as index.

[8] = tested on: SOD in LPS-induced rat; assay: Effect on SOD in LPS-induced rat; settings: ig 7 d, dose/kg: DXM 1.5 mg, Test group 1 30 mg, 2 15 mg, 3 7.5 mg, x ± S
Description: as §1, §2, §3
Group and dose: in Test group 1 and Test group 2, the ratio of picrinine, vallesamine, scholaricine and 19-epischolaricine by weight was 8:45:29:9 and 20:14:12:7, respectively, and the other groups and doses thereof were as described in Example 9.
Test index: SOD in bronchoalveolar lavage fluid (BALF), serum, and homogenate was used as index.

[9] = tested on: ALB in LPS-induced rat; assay: Effect on ALB in LPS-induced rat; settings: ig 7 d, dose/kg: DXM 1.5 mg, Test group 1 30 mg, 2 15 mg, 3 7.5 mg
Description: as §1, §2, §3
Group and dose: in Test group 1 and Test group 2, the ratio of picrinine, vallesamine, scholaricine and 19-epischolaricine by weight was 36:38:7:1 and 16:15:14:5, respectively, and the other groups and doses thereof were as described in Example 9.
Test index: ALB in bronchoalveolar lavage fluid (BALF), and serum was used as index.

With `C[C@@H]1C[C@H]2[C@@H]3CCC4=CC(=O)C=C[C@]4(C)[C@@]3(F)[C@@H](O)C[C@]2(C)[C@@]1(O)C(=O)CO` [DXM, dexamethasone] the “TNF-a BALF” value ([1]; BALF) was 11.28 ± 4.51 pg/mL, the TNF-a lung tissue ([1]; lung tissue homogenate) was 152.11 ± 37.64 pg/mL and the “TNF-a Serum” value ([1]; serum) was 5.11 ± 1.67 pg/mL. For the same compound, the MDA lung tissue ([2]; lung tissue homogenate) was 1.61 ± 0.71 nmol/mL, the “MDA Serum” value ([2]; serum) was 4.21 ± 1.49 nmol/mL and the “AKP BALF” value ([3]; BALF) was 29.0 ± 5.9 U/L. The “AKP Serum” value ([3]; serum) was 116.1 ± 36.0 U/L, the “BALF cell classification AM (alveolar macrophage)” value [4] was 52.5 ± 7.0 % and the “BALF cell classification L (lymphocyte)” value [4] was 9.3 ± 5.0^ %. For the same compound, the “BALF cell classification M (monocyte)” value [4] was 28.9 ± 6.20 %, the “BALF cell classification N (neutrophil)” value [4] was 8.2 ± 2.9 % and the WBC [4] was 3.35 ± 1.89 × 10^5/ml. The “NO BALF” value ([5]; BALF) was 13.52 ± 4.17 µmol/L, the “NO Lung tissue” value ([5]; lung tissue homogenate) was 18.35 ± 5.30 µmol/L and the “NO Serum” value ([5]; serum) was 27.20 ± 7.67 µmol/L. The “IL-8 BALF” value ([6]; BALF) was 24.62 ± 12.42 pg/mL, the IL-8 lung tissue ([6]; lung tissue homogenate) was 60.62 ± 20.11 pg/mL and the IL-8 serum ([6]; serum) was 29.62 ± 12.13 pg/mL. For the same compound, the “LDH BALF” value ([7]; BALF) was 96.7 ± 25.6 U/L, the “LDH Serum” value ([7]; serum) was 386.5 ± 92.7 U/L and the “SOD BALF” value ([8]; BALF) was 63.35 ± 13.45 U/mL. The “SOD Lung tissue” value ([8]; lung tissue homogenate) was 92.25 ± 8.88 U/mL, the “SOD Serum” value ([8]; serum) was 307.6 ± 97.7 U/mL and the “ALB BALF” value ([9]; BALF) was 0.18 ± 0.07 g/L. The “ALB Serum” value ([9]; serum) was 19.4 ± 1.4 g/L.
